Laboratory results reported in US20260021186A1, “Fatty Acid-D-Amino Acid Peptides Conjugates as Anaplerotic Compounds for Use in Treating Propionic Acidemia, Methylmalonic Acidurias, and Energy Metabolic Disorders” (University of Pittsburgh - Of the Commonwealth System of …, priority 2022, published 2026).

Tested on: Fb859 propionic acidemia patient fibroblasts
Experiment: Lysine succinylation of cellular proteins by immunofluorescence confocal microscopy
Assay type: cell-based, human
Details: media without glucose
Method: FIG. 7 are immunocytochemistry photomicrographs showing the effect of incubation of Fb859 propionic acidemia patient fibroblasts on for lysine succinylation with 90 μM of PMA010, 90 μM of PMA011, 90 μM of succinic acid, 90 μM of methylmalonic acid, or 90 μM adipic acid for 72 hours. Immunocytochemistry of the fibroblast cells were stained for anti-succinyllysine antibody, anti-MTCO1 antibody and DAPI for nuclei. Instrument: Zeiss LSM 710 confocal Microscopy. Magnification: 40×. The cells were grown in glass coverslips at a seeding density of 3-5×10^4 cells. The media for untreated and treatment groups had no glucose, glutamine or pyruvate, and lipid stripped FBS was included instead of regular FBS. Scale bar=20 μm.
FIGS. 8A-8F are a comparison of lysine succinylation of cellular proteins visualized by immunofluorescence confocal microscopy in a Propionic Acidemia (Fb859) patient untreated (FIG. 8A) and treated with 30 μM and 90 μM of D-Serine (FIG. 8B), 30 µM and 90 μM of PMA007 (FIG. 8C), or 30 μM and 90 μM of PMA010 (FIG. 8D). Scale bar=20 μm. FIG. 8E is a bar graph showing the quantification of the percent change in lysine succinylation (green) signal, from the immunofluorescence confocal micrographs of FIGS. 8B and 8C, in response to the treatment of D-serine and PMA007. FIG. 8F is a bar graph showing the quantification of the percent change in lysine succinylation (green) signal, from the immunofluorescence confocal micrographs of a D-Serine repeat experiment and FIG. 8D, in response to the treatment of D-serine and PMA010. Asterisks indicate statistical significance calculated at the raw data level (n=3); **P<0.01, ***P<0.001, ****P<0.0001 statistically compared to untreated. Statistical analysis used T-test.
Immunohistochemistry: Patient cells were grown in glass coverslips at a seeding density of 3-5×10^4 cells. The media for untreated and treatment groups had no glucose, glutamine or pyruvate, and lipid stripped FBS was included instead of regular FBS. NIH Image J software was used to quantify the fluorescence intensity from 50-60 cells per group. Immunocytochemistry of propionic acidemia patient (Fb859) fibroblast cells lines stained for anti-succinyllysine (Green), anti-MTCO1 (Red), or anti-TOMM20 antibodies, and DAPI (Blue) for nuclei. Instrument: Zeiss LSM 710 confocal Microscopy. Statistical analysis used Tukey multiple range test. ****P<0.0001, [PMA010] (90 μM) treatment group statistically compared to control cells grown in the presence of regular complete DMEM media, untreated and [PMA010] (30 μM) cells grown in the absence of glucose/pyruvate/L-glutamine.

## C[C@@H](NC(=O)CCCCC(=O)O)C(=O)N[C@H](Cc1c[nH]cn1)C(=O)O [PMA010, 6-(((R)-1-(((R)-1-carboxy-2-(1H-imidazol-4-yl)ethyl)amino)-1-oxopropan-2-yl)amino)-6-oxohexanoic acid]
FIG. 7, 90 μM, 72 hours, glutamine or pyruvate, lipid stripped FBS
  lysine succinylation (green staining) compared to untreated cells: obvious increase in the green staining
FIGS. 8A-8F, 30 μM and 90 μM, pyruvate, glutamine, stripped FBS
  lysine succinylation (green) signal: Restoration of lysine succinylation (green) signal
